Experiment: SSSP-MS/MS spot sampling of whole-body thin tissue sections of a propranolol dosed mouse
Assay type: in vivo
Conditions: male CD-1 mouse, propranolol 7.5 mg/kg i.v., sacrificed 60 min post-dose, 40 μm section, ESI+
Protocol: At 60 min post-dose, mice were euthanized with an isoflurane overdose and immediately frozen in dry ice/hexane. The frozen mice were embedded/blocked in 2% aqueous carboxymethyl cellulose. Sagittal whole-body cryosections (40 μm thick) were prepared using a Leica CM3600 cryomacrotome and collected onto adhesive tape (8″×3″, 810 Scotch® Brand Magic™ Tape, 3M) then freeze-dried within the chamber of the cryomacrotome. Prior to analysis using the SSSP, tissue sections were stored in a desiccator at room temperature. Color images of the tissue sections were acquired using a HP Scanjet 4370 flat-bed scanner (Hewlett-Packard, Palo Alto, Calif., USA).
The inlet and outlet of the SSSP (“TLC-MS interface”, CAMAG, Muttenz, Switzerland) were coupled to an ACQUITY UltraPerformance Liquid Chromatography (UPLC) system (Waters Corporation, Manchester, UK) and to a 4000 QTRAP® mass spectrometer (MDS SCIEX, Concord, Ontario, Canada), respectively (see FIG. S1 in the Supplemental section). The gas pressure applied via a piston to the plunger of the SSSP interface was about 5 bar. The flow rate of the extraction solvent was 200 μL/min in all cases. For positive ion mode ESI, the emitter voltage was 5 kV and the turbo sprayer heater temperature was 300° C. For positive ion mode APCI, heated nebulizer probe temperature and needle current were 350° C. and 5 μA, respectively.
The extraction solvent flow paths and the individual steps of the surface sampling process with the SSSP are illustrated in FIGS. 3A-3E and 4A-4E. The solvent inlet capillary to the SSSP was connected to the UPLC pump, while the outlet capillary was connected to the ion source (ESI or APCI) of the mass spectrometer. At the beginning of a surface sampling experiment, a sample was positioned under the SSSP plunger while the extraction solvent flowed from the UPLC through a loop into the ion source (as in FIGS. 3A and 4A). Next, the SSSP stainless steel plunger, with 4-mm-diameter disk shape cutting edge, was lowered to seal the sampling area by cutting into and compressing the sample substrate (paper or adhesive tape in this case) (as in FIGS. 3B and 4B). By switching the valve from standby to extraction mode, the solvent previously being pumped directly to the ion source was diverted to the surface, where it extracted the analyte, and any other soluble components, and carried them into the ion source (FIGS. 3C and 4C). After a suitable extraction time (typically 60 seconds), the valve was switched back to direct the extraction solvent from the UPLC through the loop into the ion source (FIGS. 3D and 4D). […] In the final step of the surface sampling process, the plunger was raised up from the surface (FIGS. 3E and 4E) and then a cleaning station was positioned under the probe. Here, using push button control, the sampling face of the plunger was cleaned of accumulated particulate material using a stream of pressurized nitrogen. In the case of the tissue sections on tape, the probe actually cut out a section from the sample which stayed with the probe until removed by this gas jet cleaning. […] This washed the SSSP plunger face and tubing from the plunger to the valve and on into the ion source. Given 15 or 30 s to position the probe for analysis of a DBS or tissue sample spot, respectively, a 60 second extraction time and 60 s wash time to eliminate carryover, spot-to-spot analysis time was either […].
The tissue section was collected onto an adhesive tape substrate, which is a common format to collect whole-body tissue sections for WBA analyses.

Row | SRM signal in brain (spot 2) | SRM signal in heart (spot 5) | SRM signal in kidney (spot 3) | SRM signal in liver (spot 1) | SRM signal in lung (spot 6) | Molecule
1 | not detected | Much lower | highest | highest | Much lower | hydroxypropranolol glucuronide
2 | High | – | – | – | – | CC(C)NCC(O)COc1cccc2ccccc12 (stereo not drawn) [propranolol, reference compound]

Source: US20110269166A1, “SEALING SURFACE SAMPLING PROBE APPLIED TO BLOOD SPOTS AND TISSUES” (UT-BATTELLE, LLC, priority 2010, published 2011)
